Read-outs that look alike come from different tables or passages of the source.
Key:
[1] = system: L. infantum promastigote forms; experiment: Promastigote forms assay; format: cell-based, Leishmania infantum; conditions: for SI Promastigote forms: IC50 macrophages/IC50 parasite form; for IC50: 72 h; for times SI exceeds the reference drug SI (all forms): extracellular and intracellular forms; for times SI exceeds the reference drug SI (all forms) / number of times that compound SI exceeds the reference drug SI, Promastigote forms: reference Glucantime; for number of times that compound SI exceeds the reference drug SI, Promastigote forms: in brackets
Protocol: (§1) The compounds obtained were dissolved in the culture medium, at dosages of 100, 50, 25, 10, and 1 μM. The effects of each compound against promastigote forms were tested at 72 hours using a Neubauer haemocytometric chamber. The antileishmanial effect is expressed as the IC50, that is, the concentration required to give 50% inhibition, calculated by linear regression analysis from the Kc values of the concentrations employed.

[2] = system: L. braziliensis promastigote forms; experiment: Promastigote forms assay; format: cell-based, Leishmania braziliensis; conditions: for SI Promastigote forms: IC50 macrophages/IC50 parasite form; for IC50: 72 h; for number of times that compound SI exceeds the reference drug SI, Promastigote forms: in brackets, reference Glucantime
Protocol: as §1

[3] = system: L. infantum axenic amastigote forms; experiment: Axenic amastigote forms assay; format: cell-based, Leishmania infantum; conditions: for SI Axenic amastigote forms: IC50 macrophages/IC50 parasite form; for IC50: 48 hours per method (72 h); for number of times that compound SI exceeds the reference drug SI, Axenic amastigote forms: in brackets, reference Glucantime
Protocol: (§2) Axenic amastigotes forms of L. infantum and L. braziliensis were cultured following the methodology described previously by Moreno et al.. Thus, promastigote transformation to amastigotes was obtained after three days of culture in M199 medium (Invitrogen, Leiden, The Netherlands) supplemented with 10% heat-inactivated FCS, 1 g/L β-alanine, 100 mg/L L-asparagine, 200 mg/L sacarose, 50 mg/L sodium pyruvate, 320 mg/L malic acid, 40 mg/L fumaric acid, 70 mg/L succinic acid, 200 mg/L α-ketoglutaric acid, 300 mg/L citric acid, 1.1 g/L sodium bicarbonate, 5 g/L MES, 0.4 mg/L hemin, and 10 mg/L gentamicin pH 5.4 at 37°C. The effect of each compound against axenic amastigotes forms was tested at 48 hours using a Neubauer haemocytometric chamber. The antileishmanial effect is expressed as the IC50.

[4] = system: L. braziliensis axenic amastigote forms; experiment: Axenic amastigote forms assay; format: cell-based, Leishmania braziliensis; conditions: for SI Axenic amastigote forms: IC50 macrophages/IC50 parasite form; for IC50: 48 hours per method (72 h); for number of times that compound SI exceeds the reference drug SI, Axenic amastigote forms: in brackets, reference Glucantime
Protocol: as §2

[5] = system: L. infantum intracellular amastigote forms; experiment: Intracellular amastigote forms assay in J774.2 macrophages; format: cell-based, Leishmania infantum; conditions: for SI Intracellular amastigote forms / number of times that compound SI exceeds the reference drug SI, Intracellular amastigote forms: L. infantum; for SI Intracellular amastigote forms: IC50 macrophages/IC50 parasite form; for number of times that compound SI exceeds the reference drug SI, Intracellular amastigote forms: in brackets, reference Glucantime; for IC50: L. infantum in J774.2 macrophages, 72 h
Protocol: (§3) Cells were seeded at a density of 1 × 10^4 cells/well in 24-well microplates (Nunc) with rounded coverslips on the bottom and cultured for 2 days. Afterwards the cells were infected in vitro with promastigote forms of L. infantum and L. braziliensis, at a ratio of 10 : 1 during 24 hours. The non-phagocytosed parasites were removed by washing, and then the drugs (at 1, 10, 25, 50, 100 μM) were added. Macrophages with the drugs were incubated for 72 hours at 37°C in 5% CO2.
(§4) Drug activity was determined on the basis of number of amastigotes in treated and untreated cultures in methanol-fixed and Giemsa-stained preparations. The number of amastigotes was determined by analyzing 200 host cells distributed in randomly chosen microscopic fields. The antileishmanial effect is expressed as the IC50 values are the means of three separate determinations.

[6] = system: L. braziliensis intracellular amastigote forms; experiment: as above; format: cell-based, Leishmania braziliensis; conditions: for SI Intracellular amastigote forms / number of times that compound SI exceeds the reference drug SI, Intracellular amastigote forms: L. braziliensis; for SI Intracellular amastigote forms: IC50 macrophages/IC50 parasite form; for number of times that compound SI exceeds the reference drug SI, Intracellular amastigote forms: in brackets, reference Glucantime; for IC50: L. braziliensis in J774.2 macrophages, 72 h
Protocol: as §3, §4

J774.2 macrophages = experiment: Cytotoxicity test for macrophages (flow cytometry); format: cell-based, BALB/c rat; conditions: J774.2 macrophages after 72 h of culture, read-out: Macrophage toxicity IC50
Protocol: J774.2 macrophages (ECACC number 91051511) were originally obtained from a tumour in a female BALB/c […] in 1968. The cytotoxicity test for macrophages was performed according to the methodology of González et al.. After 72 hours of treatment, cell viability was determined by flow cytometry. Thus, 100 μL/well of propidium iodide solution ([…]) was added and incubated for 10 min at 28°C in darkness. Afterwards, 100 μL/well of fluorescein diacetate (100 ng/mL) was added and incubated under the same conditions. Finally, the cells were recovered by centrifugation at 400 g for 10 min and the precipitate washed with phosphate buffered saline (PBS). Flow cytometric analysis was performed with a FACSVantage flow cytometer (Becton Dickinson). The percentage viability was calculated in comparison with the control culture. The IC50 was calculated using linear regression analysis from the Kc values of the concentrations employed.

L. infantum = experiment: Infection assay in J774.2 macrophages; format: cell-based, Leishmania infantum; conditions: IC25 concentration; for infection rate decrease, percentage of inhibition capacity: with respect to control
Protocol: (§5) J774.2 macrophage cells were grown under the same conditions expressed in amastigote forms assay during two days. Afterwards, the cells were infected in vitro with promastigote forms of L. infantum and L. braziliensis, at a ratio of 10 : 1. The drugs (IC25 concentrations) were added immediately after infection and were incubated for 12 hours at 37°C in 5% CO2. The nonphagocytosed parasites and the drugs were removed by washing, and then the infected cultures were grown for 10 days in fresh medium. Fresh culture medium was added every 48 h. The drug activity was determined from the percentage of infected cells and the number of amastigotes per infected cell (in treated and untreated cultures) in methanol-fixed and Giemsa-stained preparations. The percentage of infected cells and the mean number of amastigotes per infected cell were determined by analyzing 200 host cells distributed in randomly chosen microscopic fields. Values are the average of three separate determinations.

L. braziliensis = experiment: Infection assay in J774.2 macrophages; format: cell-based, Leishmania braziliensis; conditions: IC25 concentration; for infection rate decrease, percentage of inhibition capacity: with respect to control
Protocol: as §5

[7] = system: L. infantum promastigotes; experiment: Metabolite excretion (1H-NMR); format: cell-based, Leishmania infantum; conditions: IC25, 96 hours, vs control
Protocol: Cultures of L. infantum and L. braziliensis promastigotes (initial concentration 5 × 10^5 cells/mL) received IC25 concentrations of the compounds (except for control cultures). After incubation for 96 hours at 28°C, the cells were centrifuged at 400 g for 10 min. Then supernatants were collected to determine the excreted metabolites using ^1H-NMR, and, eventually, chemical displacements were expressed in parts per million (ppm), using sodium 2,2-dimethyl-2-silapentane-5-sulphonate as the reference signal. The chemical displacements used to identify the respective metabolites were consistent with those described by Fernández-Becerra et al.

[8] = system: L. infantum promastigotes; experiment: Ultrastructural alterations (TEM); format: cell-based, Leishmania infantum; conditions: IC25, 96 hours
Protocol: (§6) The parasites were cultured at a density of 5 × 10^5 cells/mL in MTL medium, and the cultures contained drugs at the IC25 concentration.
(§7) After 96 hours, those cultures were centrifuged at 400 g for 10 min, and the pellets produced were washed in PBS and then mixed with 2% (v/v) P-formaldehyde-glutaraldehyde in 0.05 M cacodylate buffer (pH 7.4) for 4 hours at 4°C. After that, the pellets were prepared for TEM employing the technique of González et al..

[9] = system: L. braziliensis promastigotes; experiment: Ultrastructural alterations (TEM); format: cell-based, Leishmania braziliensis; conditions: IC25, 96 hours
Protocol: as §6, §7

Molecule | SI Promastigote forms [1] | IC50 ([1]; Leishmania infantum) [µM] | times SI exceeds the reference drug SI (all forms) [1] | number of times that compound SI exceeds the reference drug SI, Promastigote forms [1] | SI Promastigote forms [2] | IC50 ([2]; Leishmania braziliensis) [µM] | number of times that compound SI exceeds the reference drug SI, Promastigote forms [2] | SI Axenic amastigote forms [3] | IC50 ([3]; Leishmania infantum) [µM] | number of times that compound SI exceeds the reference drug SI, Axenic amastigote forms [3] | SI Axenic amastigote forms [4] | IC50 ([4]; Leishmania braziliensis) [µM] | SI Intracellular amastigote forms [5] | number of times that compound SI exceeds the reference drug SI, Intracellular amastigote forms [5] | SI Intracellular amastigote forms [6] | number of times that compound SI exceeds the reference drug SI, Intracellular amastigote forms [6] | decrease of average number of amastigotes per infected macrophage cell (L. infantum) [%] | infection rate decrease, percentage of inhibition capacity (L. infantum) [%] | decrease of average number of amastigotes per infected macrophage cell (L. braziliensis) [%] | infection rate decrease, percentage of inhibition capacity (L. braziliensis) [%] | further results
CC(=O)OC[C@H]1O[C@@H](Oc2c(-c3ccc(OC(C)=O)c(OC(C)=O)c3)oc3cc(O[C@@H]4O[C@@H](C)[C@H](OC(C)=O)[C@@H](OC(C)=O)[C@H]4OC(C)=O)cc(OC(C)=O)c3c2=O)[C@H](OC(C)=O)[C@@H](OC(C)=O)[C@@H]1OC(C)=O [Compound 9, petiolaroside decacetate] | 21.5 | 22.8 ± 1.7 | < 50 times | 27 | 15.2 | 32.3 ± 3.3 | 25 | 22.8 | 21.5 ± 0.9 | 38 | 19.9 | 24.6 ± 1.3 | 15.8 | 32 | 23.3 | 47 | – | – | – | – | number of times that compound SI exceeds the reference drug SI, Axenic amastigote forms [4]: 40; IC50 ([5]; Leishmania infantum): 31 ± 1.7 µM; IC50 ([6]; Leishmania braziliensis): 21 ± 1.3 µM; IC50 (J774.2 macrophages; Mus musculus, J774.2, 72 h): 490 ± 22.4 µM
CC(=O)O[C@H]1[C@H](Oc2c(-c3ccc(O)cc3)oc3cc(O[C@@H]4O[C@H](CO)[C@@H](O)[C@H](O)[C@H]4O)cc(O)c3c2=O)O[C@H](CO)[C@@H](O)[C@@H]1O [Compound 5, 2′′-acetylpaeonoside] | 40.7 | 24.6 ± 3.7 | more than 50 times | 51 | 29.3 | 34.1 ± 6.6 | 49 | 33.6 | 29.8 ± 2.2 | 56 | – | 19.4 ± 0.9 | 26.9 | 54 | 20.0 | 40 | 45 | 79 | 72 | 79 | IC50 ([5]; Leishmania infantum): 37.2 ± 3.5 µM; IC50 ([6]; Leishmania braziliensis): 50.9 ± 6.2 µM; change in excreted catabolites [7]: an increase in the excretion of succinate, and acetate, followed by malate, alanine, lactate and ethanol; ultrastructural alterations by TEM [8]: produced similar effects; ultrastructural alterations by TEM [9]: no significant changes compared to the control
paeonoside [Compound 4] | 39.8 | – | more than 50 times | 50 | 35.6 | – | 59 | 37.2 | – | 62 | 42.2 | – | 31.8 | 64 | 30.6 | 61 | 37 | 77 | 61 | 68 | IC50 [1]: 25.1 ± 1.9 µM; IC50 [2]: 28.1 ± 5.2 µM; IC50 [3]: 26.9 ± 1.4 µM; IC50 [4]: 23.7 ± 2.1 µM; number of times that compound SI exceeds the reference drug SI, Axenic amastigote forms [4]: 84; IC50 [5]: 31.4 ± 2 µM; IC50 [6]: 32.7 ± 2.1 µM; IC50 (J774.2 macrophages): > 1000 µM; change in excreted catabolites [7]: an increase in the excretion of succinate, and acetate, followed by malate, alanine, lactate and ethanol; ultrastructural alterations by TEM [8]: many of the parasites appeared dead, while another showed pronounced vacuolization; ultrastructural alterations by TEM [9]: expansion of the kinetoplast, which appeared swollen
meglumine antimoniate [Glucantime, reference compound] | 0.8 | – | – | – | 0.6 | – | – | 0.6 | – | – | 0.5 | – | 0.5 | – | – | – | 12 | 63 | 33 | 58 | IC50 [1]: 18 ± 3.1 µM; IC50 [2]: 25.6 ± 1.6 µM; IC50 [3]: 24.2 ± 2.6 µM; IC50 [4]: 30.4 ± 6.1 µM; IC50 [5]: 30 ± 2.7 µM; IC50 [6]: 31.1 ± 3 µM; IC50 (J774.2 macrophages): 15.2 ± 1.3 µM

Source: paper PMC3366211, “Leishmanicidal Activity of Nine Novel Flavonoids from Delphinium staphisagria” (The Scientific World Journal, 2012)
